Test results as given in publication PMC12278645, “Design, synthesis, and antitumor activity of novel thioheterocyclic nucleoside derivatives by suppressing the c-MYC pathway” (Acta Pharmaceutica Sinica. B, 2025).

Columns and labels:
[1] = test system: c-MYC signal path in HCT116 cells; experiment: Western blot of c-MYC and downstream proteins; format: cell-based, human
Procedure: Whole protein was extracted and separated by polyacrylamide gel electrophoresis (SDS-PAGE) and transferred onto nitrocellulose membranes. Membranes were blotted with CDK1, Cyclin B1, Caspase-3, BAX, BCL-2, PARP-1, γ-H2AX, P53, ATF4, CHOP, PERK, ATP6, LC3, Beclin1, P62, β-Catenin, c-MYC, MAX, UPP1, GAPDH, β-Actin, and β-Tubulin primary antibodies. Protein band analyses were performed with ImageJ software and protein expression levels were presented as a percentage difference compared to control.

[2] = test system: DU145 (human prostate cancer); experiment: CCK-8 anti-proliferation assay, DU145; format: cell-based; conditions: Homo sapiens, DU-145; CCK-8, 48 h, mean ± SD
Procedure: (§1) To evaluate their spectrum of anti-proliferative activity, further CCK-8 assays were carried out with the selected compounds (5a/5b, 8a/8b, 33a/33b, and 36a/36b) on MCF-7 (human breast cancer), A375 (human malignant melanoma), DU145 (human prostate cancer), and CT26 (mouse colon cancer) cell lines. The selected compounds had moderate to potent antitumor activity on the four cell lines, indicating their broad spectrum of antitumor activity (Table 5).
(§2) MCF-7, A375, and HeLa cells were cultured in DMEM, HCT116 cells were cultured in McCoy's 5A medium, and DU145 and CT26 were cultured in RPMI 1640 with 10% FBS, 1% penicillin-streptomycin solution (10,000 U/mL penicillin and 10,000 μg/mL streptomycin) at 37 °C under 5% CO2. The cells were seeded in 96-well plates (4 × 10^3 cells/well) overnight and then treated with various concentrations (1–50 μmol/L) of the compound. After 48 h, the cell viability was measured by CCK-8 assay. The absorbance of each well was measured using a microplate reader (Multiskan FC, Thermo Fisher Scientific, Massachusetts, USA) at 450 nm wavelength. Assays were performed in triplicate. Compound concentrations that inhibited cell growth by 50% (IC50) were calculated from the dose–response curves of each cell line. Data are mean ± SD values from three independent experiments.

HCT116 cells [3] = experiment: CCK-8 anti-proliferation assay, HCT116; format: cell-based, human; conditions: Homo sapiens, HCT-116, 48 h, CCK-8, 48 h, mean ± SD, three independent experiments
Procedure: Tumor cell anti-proliferation activities were determined by cell counting kit-8 (CCK-8) assay.
as §2

[4] = test system: CT26 (mouse colon cancer); experiment: CCK-8 anti-proliferation assay, CT26; format: cell-based; conditions: Mus musculus, CT26; CCK-8, 48 h, mean ± SD
Procedure: as §1, §2

Pharmacokinetic analysis = format: in vivo, Sprague–Dawley rats; conditions: for clearance / half-life / Vd / Cmax / Tmax / AUC(0-inf): male, Sprague-Dawley, plasma; for clearance / half-life / Vd / Cmax / Tmax / AUC0-∞: rat; for Vd: read-out: Vss; for AUC(0-inf): heading: AUC0-∞, Table S5, rat
Procedure: All animal studies and procedures were approved by the Animal Ethics Committee of College of Chemistry and Chemical Engineering, Henan Normal University, China. Male Sprague–Dawley rats (220 ± 10 g, Shanghai Yuanxin Biological Co., Ltd., Shanghai, China) were used to evaluate drug pharmacokinetic properties. Briefly, compound 33a or 36b was dissolved in PBS containing 10% DMSO and 20% castor oil. Rats were treated with 1 mg/kg of compound 33a or 36b for intravenous injection and 2 mg/kg for oral intragastric administration. Blood samples were collected from each rat at 0, 0.083, 0.25, 0.5, 1, 2, 4, 6, 8, 12, and 24 h. Plasma was isolated from the blood samples by centrifugation (1200 rpm, 4 °C, 10 min. ThermoFisher Scientific, Thermo Electron LED GmbH, Zweigniederlassung Osterode Am Kalkberg, Osterode am Harz, Germany). Sample concentrations were determined by LC-MS/MS (API 4000, AB SCIEX) based on a standard curve. All data were calculated by Excel software.

HCT116 cells [5] = experiment: Wound healing assay; format: cell-based, human; conditions: 24 h
Procedure: HCT116 cells were seeded in 6-well plates (6 × 10^5 cells/well) to full confluence and then an artificial wound was created in the cell monolayer using a 200 μl pipette tip. Images of wound closure were captured at 0 and 24 h using a Leica DMIL fluorescence microscope (Leica Microsystems). The percentage of wound closure was calculated using Image J software.

c-MYC [6] = target: T1, c-MYC (Homo sapiens, UniProt P01106); experiment: Drug affinity responsive target stability (DARTS) assay; format: binding; parameters: HCT116 cells were lysed with mammalian protein extraction reagent (M-PER); endogenous in cells; host or cells: HCT116; conditions: HCT116 lysate, pronase, 0-640 μmol/L
Procedure: HCT116 cells were lysed with mammalian protein extraction reagent (M-PER), centrifuged, and quantified by BCA protein assay. […] Proteolysis was performed by adding pronase solution at a ratio of 1:3200 for 30 min at room temperature and then stopped by adding SDS-PAGE sample loading buffer and boiling at 100 °C for 5 min. c-MYC protein was analyzed by Western blot.

HCT116 cells [7] = experiment: Colony formation; format: cell-based, human; conditions: 48 h treatment, then 14 days
Procedure: HCT116 cells were seeded in 6-well plates (1.5 × 10^3 cells/well). Various concentrations of compound 33a or 36b were added to the wells for 48 h. The culture medium was changed every 72 h, at the end of 14 days, cells were fixed with methanol for 30 min and stained with 0.1% crystal violet staining solution for 30 min at room temperature, then washed three times in PBS and allowed to dry. Photographs were then taken.

c-MYC [8] = target: T1, c-MYC; experiment: Surface plasmon resonance (SPR) assay; format: binding; conditions: c-MYC immobilized on CM5 chip, 25 °C
Procedure: SPR analyses to evaluate the interaction of thioheterocyclic nucleoside derivatives with c-MYC immobilized onto a CM5 sensor chip (Cytiva, BR100012, Sweden) were performed using a Biacore T200 apparatus (Cytiva, Sweden) at 25 °C. During the analyte–ligand interaction, the change of the refractive index was measured in real-time which allowed interaction results to be plotted as response units (RU) versus time.

HCT116 cells [9] = experiment: RNA-sequencing analysis; format: cell-based, human; conditions: 48 h
Procedure: Total RNA was isolated from the HCT11 cells using Trizol (Invitrogen Life Technologies Corporation, Carlsbad, USA), cDNA synthesis followed by adaptor ligation and enrichment according to the instructions. The purified library products were evaluated using Illumina NovaSeq 6000 (paired-end 150 bp).

T1 sequence (P01106 whole entry): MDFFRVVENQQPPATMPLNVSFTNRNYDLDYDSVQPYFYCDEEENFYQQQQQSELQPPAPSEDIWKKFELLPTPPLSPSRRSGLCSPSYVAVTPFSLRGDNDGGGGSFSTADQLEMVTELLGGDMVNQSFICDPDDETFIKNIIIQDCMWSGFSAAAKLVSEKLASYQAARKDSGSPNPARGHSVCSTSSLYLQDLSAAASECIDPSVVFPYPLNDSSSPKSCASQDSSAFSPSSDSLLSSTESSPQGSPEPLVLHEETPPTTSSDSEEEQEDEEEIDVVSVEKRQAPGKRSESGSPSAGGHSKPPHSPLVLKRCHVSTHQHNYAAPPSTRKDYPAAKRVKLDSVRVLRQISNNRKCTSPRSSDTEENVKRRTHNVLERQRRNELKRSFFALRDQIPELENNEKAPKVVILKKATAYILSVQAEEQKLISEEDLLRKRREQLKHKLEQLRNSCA

| Compound | protein levels of c-MYC, β-Catenin, MAX, P21 [1] | IC50 [2] [µM] | IC50 (HCT116 cells [3]) [µM] | IC50 [4] [µM] | clearance (Pharmacokinetic analysis; IV, 1 mg/kg) [mL/min/kg] | half-life (Pharmacokinetic analysis; IV, 1 mg/kg) [h] | Vd (Pharmacokinetic analysis; IV, 1 mg/kg) [L/kg] | Cmax (Pharmacokinetic analysis; oral (i.g.), 2 mg/kg) [ng/mL] | Tmax (Pharmacokinetic analysis; oral (i.g.), 2 mg/kg) [h] | half-life (Pharmacokinetic analysis; oral (i.g.), 2 mg/kg) [h] | AUC0-∞ (Pharmacokinetic analysis; IV, 1 mg/kg) [ng·h/mL] | AUC0-∞ (Pharmacokinetic analysis; oral (i.g.), 2 mg/kg) [ng·h/mL] | wound healing (HCT116 cells [5]) | stability of c-MYC against proteolysis (c-MYC [6]) | colony formation (HCT116 cells [7]) | Kd (c-MYC [8]) [µM] | genes significantly downregulated (HCT116 cells [9]; 0.8 μmol/L) | genes significantly upregulated (HCT116 cells [9]; 0.8 μmol/Lol/L) | AUC(0-inf) (Pharmacokinetic analysis; 1 mg/kg, IV, 1 mg/kg) [ng·h/mL] | AUC(0-inf) (Pharmacokinetic analysis; 2 mg/kg, oral, 2 mg/kg) [ng·h/mL] |
| --- | --- | --- | --- | --- | --- | --- | --- | --- | --- | --- | --- | --- | --- | --- | --- | --- | --- | --- | --- | --- |
| CCOC(=O)[C@]1(n2cnc3c(N4CCCCC4)nc(F)nc32)CSC[C@H]1O (racemic) [33a] | c-MYC, β-Catenin, and MAX were significantly decreased, whereas the expression of p21 increased significantly in a dose-dependent manner | 21.1 ± 1.21 | 0.27 ± 0.01 | 0.57 ± 0.13 | 5.1 | 5 | 2.15 | 301 | 4 | 6.8 | 3270 | 3310 | significantly delay the wound healing ability of HCT116 cells in a dose-dependent manner | increase the stability of c-MYC in the process of protease hydrolysis | reduce the colony formation number in a dose-dependent manner | 42.9 | 221 | 265 | – | – |
| CCCSc1nc(F)nc2c1ncn2[C@@]1(C(=O)OCC)CSC[C@@H]1O (relative stereo) [36b] | c-MYC, β-Catenin, and MAX were significantly decreased, whereas the expression of p21 increased significantly in a dose-dependent manner | 6.59 ± 1.36 | 0.49 ± 0.08 | 0.85 ± 0.09 | 1.89 | 4.9 | 3.54 | 276 | 4 | 4.1 | – | – | significantly delay the wound healing ability of HCT116 cells in a dose-dependent manner | increase the stability of c-MYC in the process of protease hydrolysis | reduce the colony formation number in a dose-dependent manner | 206 | – | – | 8800 | 1800 |
